# Source: patent publication US12637437B2, “Herbicidal compounds” (SYNGENTA CROP PROTECTION AG, priority 2021, dated 2026)
# Experiments:
# Type in all cases: in vivo
# [1] = test system: Amaranthus retoflexus (AMARE); assay: Post-emergence herbicidal glasshouse test, AMARE; parameters: dose or concentration left out as unconfirmed; conditions: evaluated after 13 days, five-point scale
# Method: (§1) Seeds of a variety of test species are sown in standard soil in pots (Lolium perenne (LOLPE), Amaranthus retoflexus (AMARE), Abutilon theophrasti (ABUTH), Setaria faberi (SETFA), Echinochloa crus-galli (ECHCG), Ipomoea hederacea (IPOHE)). After cultivation for one day (pre-emergence) or after 8 days cultivation (post-emergence) under controlled conditions in a glasshouse (at 24/16° C., day/night; 14 hours light; 65% humidity), the plants are sprayed with an aqueous spray solution derived from the formulation of the technical active ingredient in acetone/water (50:50) solution containing 0.5% Tween 20 (polyoxyethelyene sorbitan monolaurate, CAS RN 9005-64-5). Compounds are applied at 125 g/h unless otherwise indicated. The test plants are then grown in a glasshouse under controlled conditions in a glasshouse (at 24/16° C., day/night; 14 hours light; 65% humidity) and watered twice daily. After 13 days for pre and post-emergence, the test is evaluated for the percentage damage caused to the plant. The biological activities are shown in the following table on a five-point scale (5=80-100%; 4=60-79%; 3=40-59%; 2=20-39%; 1=0-19%). “—” denotes not tested on this species or data not captured.
# [2] = test system: Abutilon theophrasti (ABUTH); assay: Post-emergence herbicidal glasshouse test, ABUTH; conditions: 125 g/h, evaluated after 13 days, five-point scale
# Method: as §1
# [3] = test system: Setaria faberi (SETFA); assay: Post-emergence herbicidal glasshouse test, SETFA; conditions: 125 g/h, evaluated after 13 days, five-point scale
# Method: as §1
# [4] = test system: Echinochloa crus-galli (ECHCG); assay: Post-emergence herbicidal glasshouse test, ECHCG; conditions: 125 g/h, evaluated after 13 days, five-point scale
# Method: as §1
# [5] = test system: Ipomoea hederacea (IPOHE); assay: Post-emergence herbicidal glasshouse test, IPOHE; conditions: 125 g/h, evaluated after 13 days, five-point scale
# Method: as §1
# [6] = test system: Amaranthus retoflexus (AMARE); assay: Pre-emergence herbicidal glasshouse test, AMARE; conditions: 125 g/h, evaluated after 13 days, five-point scale
# Method: as §1
# [7] = test system: Abutilon theophrasti (ABUTH); assay: Pre-emergence herbicidal glasshouse test, ABUTH; conditions: 125 g/h, evaluated after 13 days, five-point scale
# Method: as §1
# [8] = test system: Setaria faberi (SETFA); assay: Pre-emergence herbicidal glasshouse test, SETFA; conditions: 125 g/h, evaluated after 13 days, five-point scale
# Method: as §1
# [9] = test system: Echinochloa crus-galli (ECHCG); assay: Pre-emergence herbicidal glasshouse test, ECHCG; conditions: 125 g/h, evaluated after 13 days, five-point scale
# Method: as §1
# [10] = test system: Ipomoea hederacea (IPOHE); assay: Pre-emergence herbicidal glasshouse test, IPOHE; conditions: 125 g/h, evaluated after 13 days, five-point scale
# Method: as §1
Compound,"percentage damage caused to the plant, POST Application AMARE [1]","percentage damage caused to the plant, POST Application ABUTH [2]","percentage damage caused to the plant, POST Application SETFA [3]","percentage damage caused to the plant, POST Application ECHCG [4]","percentage damage caused to the plant, POST Application IPOHE [5]","percentage damage caused to the plant, PRE Application AMARE [6]","percentage damage caused to the plant, PRE Application ABUTH [7]","percentage damage caused to the plant, PRE Application SETFA [8]","percentage damage caused to the plant, PRE Application ECHCG [9]","percentage damage caused to the plant, PRE Application IPOHE [10]"
COC(=O)Nc1c(OC(F)(F)F)ccc(C(=O)Nc2nnnn2C)c1Cl [Compound 1.001],5 (5=80-100%),5 (5=80-100%),5 (5=80-100%),5 (5=80-100%),5 (5=80-100%),5 (5=80-100%),5 (5=80-100%),5 (5=80-100%),5 (5=80-100%),3 (3=40-59%)
"CCOC(=O)Nc1c(OC(F)(F)F)ccc(C(=O)Nc2nnnn2C)c1Cl [Compound 1.002, ethyl N-[2-chloro-3-[(1-methyltetrazol-5-yl)carbamoyl]-6-(trifluoromethoxy)phenyl]carbamate]",4 (4=60-79%),4 (4=60-79%),4 (4=60-79%),4 (4=60-79%),4 (4=60-79%),5 (5=80-100%),5 (5=80-100%),4 (4=60-79%),5 (5=80-100%),5 (5=80-100%)
CCn1nnnc1NC(=O)c1ccc(OC(F)(F)F)c(NC(=O)OC)c1Cl [Compound 1.003],4 (4=60-79%),4 (4=60-79%),4 (4=60-79%),4 (4=60-79%),4 (4=60-79%),5 (5=80-100%),5 (5=80-100%),5 (5=80-100%),5 (5=80-100%),4 (4=60-79%)
CCOC(=O)Nc1c(OC(F)(F)F)ccc(C(=O)Nc2nnnn2CC)c1Cl [Compound 1.004],4 (4=60-79%),4 (4=60-79%),4 (4=60-79%),4 (4=60-79%),4 (4=60-79%),5 (5=80-100%),5 (5=80-100%),3 (3=40-59%),5 (5=80-100%),4 (4=60-79%)
COC(=O)Nc1c(OC(F)F)ccc(C(=O)Nc2nnnn2C)c1Cl [Compound 1.005],5 (5=80-100%),5 (5=80-100%),5 (5=80-100%),5 (5=80-100%),5 (5=80-100%),5 (5=80-100%),5 (5=80-100%),4 (4=60-79%),5 (5=80-100%),4 (4=60-79%)
COCCOC(=O)Nc1c(OC(F)(F)F)ccc(C(=O)Nc2nnnn2C)c1Cl [Compound 1.006],5 (5=80-100%),5 (5=80-100%),4 (4=60-79%),4 (4=60-79%),4 (4=60-79%),4 (4=60-79%),5 (5=80-100%),4 (4=60-79%),5 (5=80-100%),4 (4=60-79%)
COC(=O)Nc1c(OC(F)(F)F)ccc(C(=O)Nc2nnnn2C)c1C [Compound 1.035],5 (5=80-100%),,5 (5=80-100%),5 (5=80-100%),3 (3=40-59%),5 (5=80-100%),,5 (5=80-100%),5 (5=80-100%),3 (3=40-59%)
CCOC(=O)Nc1c(OC(F)(F)F)ccc(C(=O)Nc2nnnn2C)c1C [Compound 1.036],5 (5=80-100%),,5 (5=80-100%),5 (5=80-100%),5 (5=80-100%),5 (5=80-100%),,5 (5=80-100%),5 (5=80-100%),5 (5=80-100%)
Cn1nnnc1NC(=O)c1ccc(OC(F)F)c(N2CCOC2=O)c1Cl [Compound 1.037],5 (5=80-100%),,5 (5=80-100%),5 (5=80-100%),5 (5=80-100%),5 (5=80-100%),,5 (5=80-100%),5 (5=80-100%),5 (5=80-100%)
CCOC(=O)N(C)c1c(OC(F)F)ccc(C(=O)Nc2nnnn2C)c1Cl [Compound 1.041],5 (5=80-100%),,5 (5=80-100%),5 (5=80-100%),5 (5=80-100%),5 (5=80-100%),,4 (4=60-79%),5 (5=80-100%),4 (4=60-79%)
COC(=O)N(C)c1c(OC(F)F)ccc(C(=O)Nc2nnnn2C)c1Cl [Compound 1.042],5 (5=80-100%),,5 (5=80-100%),5 (5=80-100%),5 (5=80-100%),5 (5=80-100%),,5 (5=80-100%),5 (5=80-100%),4 (4=60-79%)
CCN(C(=O)OC)c1c(OC(F)F)ccc(C(=O)Nc2nnnn2C)c1Cl [Compound 1.043],5 (5=80-100%),,5 (5=80-100%),5 (5=80-100%),4 (4=60-79%),5 (5=80-100%),,5 (5=80-100%),5 (5=80-100%),3 (3=40-59%)
CCOC(=O)N(CC)c1c(OC(F)F)ccc(C(=O)Nc2nnnn2C)c1Cl [Compound 1.044],5 (5=80-100%),,5 (5=80-100%),5 (5=80-100%),4 (4=60-79%),5 (5=80-100%),,4 (4=60-79%),5 (5=80-100%),2 (2=20-39%)
